Values quoted from earlier work, collected in patent US6352974B1, “Oral calcitonin pharmaceutical compositions and methods of making the same” (Eurand International S.p.A., priority 1996, dated 2002).

Conditions: typical activity

## Salmon calcitonin
  activity: up to 6500 IU/mg
